The results in this text go back to patent US10138255B2, “Piperazine derivatives as HIV protease inhibitors” (Merck Sharp & Dohme Corp., priority 2014, dated 2018).

For the experiment, the system named is HIV-1 (H9IIIB strain). As to the kind of experiment: Cell-Based HIV Infection Assay Using a Reporter (MT4-GFP cells). Particulars: Human immunodeficiency virus 1, inflection point (IP) of viral growth inhibition; MT4-GFP cells infected with HIV-1 H9IIIB; 50% normal human serum; mean of at least two independent experiments; read-out: Cell Based IP (50% NHS). The protocol:
Cell-Based HIV Infection Assay Using a Reporter (“Cell-Based”):
MT4-GFP cells contain a stably integrated HIV long terminal repeat promoter directing the transcription of green fluorescent protein (GFP). When HIV infects the cell, GFP is produced and the cell becomes green. MT4-GFP cells (250,000 cells/mL) were bulk-infected with HIV-1 (H9IIIB strain) at low multiplicity of infection (MOI) in RPM 1640 media, supplemented with 10% FBS for 24 h. Cells were then washed once in RPMI 1640 plus 10% FBS and resuspended in RPMI plus 50% normal human serum (NHS). Test compounds were serial-diluted in DMSO using an ECHO liquid dispenser. A control well included a combination of three HIV drugs (an inhibitor of HIV protease, integrase strand transfer and a non-nucleoside reverse transcriptase inhibitor; triple drug). The infected MT4-GFP cells were added to a 384-well poly-D-lysine coated black plate with clear bottom in which the diluted test compounds were placed. The cells were seeded in the plate at 8,000 cells per well and the final DMSO concentration was 0.4%. Infected cells were quantified at both 24 and 48 h post incubation using an Acumen eX3 plate reader. Viral reproductive ratio (R0) was determined using the number of infected cells at 48 h divided by the number of infected cells at 24 h. Percent viral growth inhibition was calculated by [1−(R−Rtripledrug)/(RDMSO−Rtripledrug)]*100. Compound potency inflection point (IP) was determined with use of a 4-parameter dose response curve analysis.
Data shown in the table reflects the mean of at least two independent experiments.

Each structure is given as a SMILES string.

Consider `CC(F)(F)c1ccc([C@H](c2ccc(Cl)cc2)[C@H](N)C(=O)Nc2cccc(F)c2CC[C@H]2CN[C@@H]3CCCS(=O)(=O)N2C3)cn1` [Example 12, (2S,3S)-2-amino-3-(4-chlorophenyl)-3-(6-(1,1-difluoroethyl)pyridin-3-yl)-N-(2-(2-((6R,9S)-2,2-dioxido-2-thia-1,7-diazabicyclo[4.3.1]decan-9-yl)ethyl)-3-fluorophenyl)propanamide], for which the EC50 is 5.9 nM.

For `COC(=O)N[C@H](C(=O)Nc1cccc(F)c1CC[C@H]1CN[C@@H]2CCCS(=O)(=O)N1C2)[C@]1(c2ccc(Cl)cc2)CC[C@@H](OC)CC1` [Example 13, Methyl {(1S)-1-[trans-1-(4-chlorophenyl)-4-methoxycyclohexyl]-2-[(2-{2-[(6R,9S)-2,2-dioxido-2-thia-1,7-diazabicyclo[4.3.1]dec-9-yl]ethyl}-3-fluorophenyl)amino]-2-oxoethyl}carbamate], the EC50 stood at 7.6 nM.

Regarding `COC(=O)N1CCC(c2ccc(Cl)cc2)([C@H](N)C(=O)Nc2cccc(F)c2CC[C@H]2CN[C@@H]3CCCS(=O)(=O)N2C3)CC1` [Example 14, Methyl 4-{(1S)-1-amino-2-[(2-{2-[(6R,9S)-2,2-dioxido-2-thia-1,7-diazabicyclo[4.3.1]dec-9-yl]ethyl}-3-fluorophenyl)amino]-2-oxoethyl}-4-(4-chlorophenyl)piperidine-1-carboxylate], the EC50 amounted to 14 nM.

With `C[C@@H]1C[C@H](C(c2ccc(F)cc2)[C@H](N)C(=O)Nc2cccc(F)c2CC[C@H]2CN[C@@H]3CCCS(=O)(=O)N2C3)C[C@H](C)O1` (stereo partly drawn) [Example 15, β-[(2R,4r,6S)-2,6-Dimethyltetrahydro-2H-pyran-4-yl]-N-(2-{2-[(6R,9S)-2,2-dioxido-2-thia-1,7-diazabicyclo[4.3.1]dec-9-yl]ethyl}-3-fluorophenyl)-4-fluoro-L-phenylalaninamide], the EC50 turned out to be 8.8 nM.

On to `COC(=O)N[C@H](C(=O)Nc1cccc(F)c1CC[C@H]1CN[C@@H]2CCCS(=O)(=O)N1C2)[C@@H](c1ccc(Cl)c(F)c1)C1C[C@@H](C)O[C@@H](C)C1` (stereo partly drawn) [Example 16, Methyl {(1S,2R)-2-(4-chloro-3-fluorophenyl)-2-[(2R,6S)-2,6-dimethyltetrahydro-2H-pyran-4-yl]-1-[(2-{2-[(6R,9S)-2,2-dioxido-2-thia-1,7-diazabicyclo[4.3.1]dec-9-yl]ethyl}-3-fluorophenyl)carbamoyl]ethyl}carbamate], for which the EC50 stood at 4.9 nM.

For `CC(C)Oc1cc([C@H](c2ccc(Cl)cc2)[C@H](N)C(=O)Nc2cccc(F)c2CCC2CNC3CCCS(=O)(=O)N2C3)ccn1` (stereo partly drawn) [Example 17, (βS)-4-Chloro-N-{2-[2-(2,2-dioxido-2-thia-1,7-diazabicyclo[4.3.1]dec-9-yl)ethyl]-3-fluorophenyl}-β-[2-(1-methylethoxy)pyridin-4-yl]-L-phenylalaninamide], the EC50 worked out at 8.9 nM.

In the case of `COC(=O)N[C@H](C(=O)Nc1cccc(F)c1CCC1CNC2CCCS(=O)(=O)N1C2)[C@@H](c1ccc(Cl)cc1)c1ccnc(C(F)(F)F)c1` (stereo partly drawn) [Example 18, Methyl {(1S,2S)-2-(4-chlorophenyl)-1-({2-[2-(2,2-dioxido-2-thia-1,7-diazabicyclo[4.3.1]dec-9-yl)ethyl]-3-fluorophenyl}carbamoyl)-2-[2-(trifluoromethyl)pyridin-4-yl]ethyl}carbamate], the EC50 is 8.7 nM.

For `COC(=O)N[C@H](C(=O)Nc1cccc(F)c1CCC1CNC2CCCS(=O)(=O)N1C2)[C@H](c1cncc(C(F)(F)F)c1)c1ccc(Cl)c(F)c1` (stereo partly drawn) [Example 19, Methyl {(1S,2S)-2-(4-chloro-3-fluorophenyl)-1-({2-[2-(2,2-dioxido-2-thia-1,7-diazabicyclo[4.3.1]dec-9-yl)ethyl]-3-fluorophenyl}carbamoyl)-2-[5-(trifluoromethyl)pyridin-3-yl]ethyl}carbamate], the EC50 came to 5.2 nM.

For `CC(F)(F)c1cncc([C@H](c2ccc(Cl)cc2)[C@H](N)C(=O)Nc2cccc(F)c2CCC2CNC3CCCS(=O)(=O)N2C3)c1` (stereo partly drawn) [Example 20, (βS)-4-Chloro-β-[5-(1,1-difluoroethyl)pyridin-3-yl]-N-{2-[2-(2,2-dioxido-2-thia-1,7-diazabicyclo[4.3.1]dec-9-yl)ethyl]-3-fluorophenyl}-L-phenylalaninamide], the EC50 turned out to be 11 nM.

For the compound `COC(=O)N[C@H](C(=O)Nc1cccc(F)c1CCC1CNC2CCCS(=O)(=O)N1C2)[C@@H](c1ccc(Cl)cc1)c1ccc(C(F)(F)F)nc1` (stereo partly drawn) [Example 21, Methyl {(1S,2S)-2-(4-chlorophenyl)-1-({2-[2-(2,2-dioxido-2-thia-1,7-diazabicyclo[4.3.1]dec-9-yl)ethyl]-3-fluorophenyl}carbamoyl)-2-[6-(trifluoromethyl)pyridin-3-yl]ethyl}carbamate], the EC50 was found to be 5 nM.

On to `COC(=O)N[C@H](C(=O)Nc1cccc(F)c1CC[C@H]1CN[C@@H]2CCCS(=O)(=O)N1C2)[C@@H](c1ccc(F)cc1)c1cnc(C(F)(F)F)nc1` [Example 22, Methyl [(1S)-2-[(2-{2-[(6R,9S)-2,2-dioxido-2-thia-1,7-diazabicyclo[4.3.1]dec-9-yl]ethyl}-3-fluorophenyl)amino]-1-{(S)-(4-fluorophenyl)[2-(trifluoromethyl)pyrimidin-5-yl]methyl}-2-oxoethyl]carbamate], for which the EC50 turned out to be 15 nM.

As for `CC(C)Oc1ncc([C@H](c2ccc(F)cc2)[C@H](N)C(=O)Nc2cccc(F)c2CC[C@H]2CN[C@@H]3CCCS(=O)(=O)N2C3)cn1` [Example 23, (βS)—N-(2-{2-[(6R,9S)-2,2-Dioxido-2-thia-1,7-diazabicyclo[4.3.1]dec-9-yl]ethyl}-3-fluorophenyl)-4-fluoro-β-[2-(1-methylethoxy)pyrimidin-5-yf]-L-phenylalaninamide], the EC50 was determined as 9.3 nM.

Regarding `N[C@H](C(=O)N[C@H]1CCCC[C@@H]1CC[C@H]1CN[C@@H]2CCCS(=O)(=O)N1C2)[C@@H](c1ccc(Cl)cc1)C1CCOCC1` [Example 24, (βR)-4-Chloro-N-[(1S,2R)-2-{2-[(6R,9S)-2,2-dioxido-2-thia-1,7-diazabicyclo[4.3.1]dec-9-yl]ethyl}cyclohexyl]-β-(tetrahydro-2H-pyran-4-yl)-L-phenylalaninamide], the EC50 amounted to 13 nM.

As for `COC(=O)N[C@H](C(=O)N[C@H]1CCCC[C@@H]1CC[C@H]1CN[C@@H]2CCCS(=O)(=O)N1C2)[C@@H](c1ccc(Cl)cc1)C1CCOCC1` [Example 25, Methyl [(1S,2R)-2-(4-chlorophenyl)-1-{[(1S,2R)-2-{2-[(6R,9S)-2,2-dioxido-2-thia-1,7-diazabicyclo[4.3.1]dec-9-yl]ethyl}cyclohexyl]carbamoyl}-2-(tetrahydro-2H-pyran-4-yl)ethyl]carbamate], the EC50 was determined as 41 nM.

`COC(=O)N[C@H](C(=O)Nc1ccc(F)c(F)c1CC[C@H]1CN[C@@H]2CCCS(=O)(=O)N1C2)[C@@H](c1ccc(F)cc1)[C@H]1CC[C@H](OC)CC1` [Example 26, Methyl ((2S,3R)-1-((2-(2-((6R,9S)-2,2-dioxido-2-thia-1,7-diazabicyclo[4.3.1]decan-9-yl)ethyl)-3,4-difluorophenyl)amino)-3-(4-fluorophenyl)-3-((1r,4R)-4-methoxycyclohexyl)-1-oxopropan-2-yl)carbamate]: the EC50 was determined as 11 nM.
